Assay results as given in patent US20260015352A1, “METHYLTRANSFERASE INHIBITOR AND USE THEREOF” (CYTOSINLAB THERAPEUTICS CO., LTD., priority 2022, published 2026).

Tested on: G401 cells
Experiment: G401 ELISA test
Format: cell-based
Conditions: Homo sapiens, G-401; G401 cells treated with compounds for 72 hours; ELISA detecting K27 and H3; read-out: G401_ELISA IC50
Protocol: • Plate Reader: Envision (Perkinelmner); plate shaker: IKA MTS 2/4; plate Washer: BioTek microplate wisher 405 select; Cell counter: Counterstar (Ruiyu-biotech); Cell culture incubator: MCO-15AC (ThermoFisher); Pipette: BioHit Multichannel. Pipette: 0.2-10 μL, 10-300 μL, 50-1200 μL; Centrifuge: Thermo Centrifuge ST 40R; Pure water system: Millipore Milli-Q Reference system; Refrigerator: Haier −80 degree, −20 degree, and 4-degree refrigerators; cell cryopreservation box: Mr. Frosty™ Gradient Cooling Box Cat #5100-0001
• McCoys 5A (Modified) culture medium (ATCC); FBS (Gibco); 0.25% Trypsin/EDTA (Gibco); PBS (Hyclone); Penicillin/Streptomycin(100×) (Gibco); DMSO (Sigma); 384 cell culture plate (Corning); 384 detection plate (Greiner); 96 well plate (compound dilution) (Haimen, Qunchao); T75 Cell Culture Bottle (Corning)
G401 cells were seeded in a 384-well cell culture plate and incubated overnight at 37° C. in a 5% CO2 cell culture incubator, after which the cells were treated with compounds of different concentrations for 72 hours. The 384-well cell culture plate was taken out and upside down in a centrifuge to centrifugeat 300 rpm for 1 minute. After centrifugation, the 384-well cell culture plate was washed twice with PBS, added with lysis solution and lysed for 60 minutes. Then neutralization buffer was added for mixing and incubation was continued for 30 minutes. 20 ul (for detecting K27) and 10 ul (for detecting H3) of cell lysate were extracted from the 384-well cell culture plate and transferred to a 384 ELISA detection plate and incubate overnight at 4° C. The next day, the 384 ELISA plate was taken out and washed 5 times with TBST in a microplate washer. Then, the plate was added with a blocking solution and sealed at room temperature for 1 hour. The blocking solution was discarded and the primary antibody was added and then the plate was incubated at room temperature for 1 hour. After incubation, the plate was washed with TBST 5 times in a microplate washer, then added with secondary antibody and incubated at room temperature for 1 hour. After incubation, the plate was washed with TBST 5 times in a microplate washer, and finally added with color developer for color development. The plate was read with Envision plate reader. The obtained data was converted into inhibition rate using the following calculation method: % Inhibition rate=100−100*(compound absorbance−positive control absorbance)/(negative control absorbance−positive control absorbance), and then the inhibition rate data was subjected to curve fitting using the “logarithmic (inhibitor) and reaction-variable slope (four parameters)” model in GraphPad Prism 5 software.
The inhibition rate of the compound was calculated as follows: […]
The compounds of the present invention were tested according to the above experimental method, and some results were shown in Table 3. The test results were classified by A, B, and C, wherein A represents IC50≤0.1 uM; B represents 0.1 uM<IC50≤1 uM; C represents IC50>1 uM

For `Cc1ccc2ccc(Nc3ccc([C@H](C)Nc4ncc(CNC5CS(=O)(=O)C5)cn4)cc3F)nc2c1Cl` [PA167, (S)-3-(2-(1-(4-(8-chloro-7-methylquinolin-2-amino)-3-fluorophenyl)ethylamino)pyrimidin-5-ylmethylamino)thietan-1,1-dione], the IC50 was no more than 100 nM.

`C[C@@H](Nc1ncc(CC(=O)NC2COC2)cn1)C12CCC(Nc3ccc4ccnc(Cl)c4n3)(CC1)CC2` [PA209] gave an IC50 of 100 to 1000 nM.

`COc1nccc2ccc(Nc3ccc(CNc4ncc(CN5CCC(O)CC5)cn4)cc3F)nc12` [PA227] showed an IC50 of 100 to 1000 nM.

Compound `O=C(Cc1cnc(NCc2ccc(Nc3ccc4c(Cl)nccc4n3)cc2)nc1)NC1COC1` [PA243] has an IC50 greater than 1000 nM.

Work on `CNc1nccc2ccc(Nc3ccc(CNc4ncc(CC(=O)NC5COC5)cn4)cc3)nc12` [PA068] yielded an IC50 of 100 to 1000 nM.

Work on `COc1nccc2ccc(Nc3ccc([C@H](C)Nc4ncc(CC(=O)N(CCC#N)CCC#N)cn4)cc3F)nc12` [PA192] yielded an IC50 of no more than 100 nM.

Compound `C[C@@H](C(=O)NC1COC1)c1cnc(NCc2ccc(Nc3ccc4ccnc(Cl)c4n3)cc2)nc1` [PA055] has an IC50 greater than 1000 nM.

`COc1nccc2ccc(Nc3ccc([C@H](C)Nc4ncc(CNC5CCS(=O)(=O)C5)cn4)cc3F)nc12` (some centres unmarked) [PA182] showed an IC50 of no more than 100 nM.

`COc1nccc2ccc(Nc3ccc([C@H](C)Nc4ncc(N5CC(C#N)C5)cn4)cc3F)nc12` [PA206] showed an IC50 of no more than 100 nM.

`COc1nccc2ccc(Nc3ccc(CNc4ncc(CC(=O)NC5COC5)cn4)cc3)nc12` [PA001] showed an IC50 of no more than 100 nM.

`COc1nccc2ccc(Nc3ccc(CNc4ncc(CNCCO)cn4)cc3F)nc12` [PA242] gave an IC50 greater than 1000 nM.

`Cn1ccc2ccc(Nc3ccc(CNc4ncc(CC(=O)NC5COC5)cn4)cc3)nc2c1=O` [PA255] showed an IC50 greater than 1000 nM.

`O=C(Nc1ccc(NCC23CCC(Nc4ccc5ccnc(Cl)c5n4)(CC2)CC3)nc1)NC1COC1` [PA250] was tested, and the IC50 was greater than 1000 nM.

`COc1nccc2ccc(Nc3ccc(CNc4ncc(C(C)C(=O)NC5COC5)cn4)cc3)nc12` (racemic) [PA041, 2-[2-[[4-[(8-methoxy-1,7-naphthyridin-2-yl)amino]phenyl]methylamino]pyrimidin-5-yl]-N-(oxetan-3-yl) propanamide] showed an IC50 of no more than 100 nM.

In the case of `C[C@H](Nc1ncc(CNC2CS(=O)(=O)C2)cn1)C12CCC(Nc3ccc4ccnc(Cl)c4n3)(CC1)CC2` [PA165], the IC50 is reported as no more than 100 nM.

`C[C@H](Nc1ncc(C=CC2CS(=O)(=O)C2)cn1)C12CCC(Nc3ccc4ccnc(Cl)c4n3)(CC1)CC2` [PA164] showed an IC50 of no more than 100 nM.

`COc1nccc2ccc(Nc3ccc([C@H](C)Nc4ncc(N5CCC(C#N)CC5)cn4)cc3F)nc12` [PA214] gave an IC50 of 100 to 1000 nM.

`O=C(Cc1cnc(NCC23CCC(Nc4ccc5cccc(Cl)c5n4)(CC2)CC3)nc1)NC1COC1` [PA263] was tested, and the IC50 was no more than 100 nM.

`O=C(Cc1cnc(NCc2ccc(Nc3ccc4ccnc(Cl)c4n3)cc2)nc1)NC1COC1` [PA010] gave an IC50 of 100 to 1000 nM.

`COc1nccc2ccc(Nc3ccc(CNc4ncc(CNCc5cnoc5)cn4)cc3F)nc12` [PA198] showed an IC50 of no more than 100 nM.

With `COc1nccc2ccc(Nc3ccc(CNc4ncc(CC(=O)NCCO)cn4)cc3)nc12` [PA151] the IC50 was greater than 1000 nM.

Work on `COc1nccc2ccc(Nc3ccc([C@H](C)Nc4ncc(C(N)C(=O)NC5COC5)cn4)cc3F)nc12` (some centres unmarked) [PA205] yielded an IC50 of no more than 100 nM.

For `COc1nccc2ccc(Nc3ccc([C@H](C)Nc4ncc([C@H](C)C(=O)NC5COC5)cn4)cc3F)nc12` [PA186], the IC50 was no more than 100 nM.

With `COc1nccc2ccc(Nc3ccc([C@H](C)Nc4ncc(CC(=O)N(CCC#N)C5COC5)cn4)cc3F)nc12` [PA185] the IC50 was no more than 100 nM.

`COc1nccc2ccc(Nc3ccc([C@H](C)Nc4ncc(C(C)C(=O)NC5COC5)cn4)cc3F)nc12` (some centres unmarked) [PA190] was tested, and the IC50 was no more than 100 nM.

`COc1nccc2ccc(Nc3ccc([C@H](C)Nc4ncc(C=CC5CCS(=O)(=O)CC5)cn4)cc3F)nc12` [PA213] was tested, and the IC50 was 100 to 1000 nM.

`COc1ccc2ccc(Nc3ccc(CNc4ncc(CC(=O)NC5COC5)cn4)cc3)nc2n1` [PA073] was tested, and the IC50 was greater than 1000 nM.

Compound `COc1nccc2ccc(Nc3ccc([C@H](C)Nc4ncc(CCc5cc(C#N)n[nH]5)cn4)cc3F)nc12` [PA219] has an IC50 of 100 to 1000 nM.

`COc1nccc2ccc(Nc3ccc([C@H](C)Nc4ncc(CNC5CCS(=O)(=O)CC5)cn4)cc3F)nc12` [PA261] was tested, and the IC50 was no more than 100 nM.

`COc1nccc2ccc(Nc3ccc([C@H](C)Nc4ncc(CN5CC(C#N)C5)cn4)cc3F)nc12` [PA173] was tested, and the IC50 was no more than 100 nM.

Work on `COc1nccc2ccc(Nc3ccc([C@H](C)Nc4ncc(CNCCS(C)(=O)=O)cn4)cc3F)nc12` [PA260] yielded an IC50 of no more than 100 nM.

With `N#Cc1nccc2ccc(Nc3ccc(CNc4ncc(CC(=O)NC5COC5)cn4)cc3)nc12` [PA074] the IC50 was greater than 1000 nM.

In the case of `COc1nccc2ccc(NC34CCC([C@H](C)Nc5ncc(C(C)C(=O)NC6COC6)cn5)(CC3)CC4)nc12` (some centres unmarked) [PA168], the IC50 is reported as no more than 100 nM.

For `COc1nccc2ccc(Nc3ccc(CNc4ncc(CC(=O)N5CCC(O)CC5)cn4)cc3F)nc12` [PA230], the IC50 was 100 to 1000 nM.

`COc1nccc2ccc(Nc3ccc([C@H](C)Nc4ncc(CCN(C)C5CC(F)(F)C5)cn4)cc3F)nc12` [PA235] was tested, and the IC50 was 100 to 1000 nM.

Work on `COc1nccc2ccc(Nc3ccc(CNc4ncc(CC(=O)NC5COC5)cn4)cn3)nc12` [PA070] yielded an IC50 greater than 1000 nM.

Work on `O=C(Cc1cnc(NCC23CCC(Nc4ccc5ccnc(Cl)c5n4)(CC2)CC3)nc1)NC1COC1` [PA046, 2-[2-[[4-[(8-chloro-1,7-naphthyridin-2-yl)amino]-1-bicyclo[2.2.2]octyl]methylamino]pyrimidin-5-yl]-N-(oxetan-3-yl)acetamide] yielded an IC50 of no more than 100 nM.

`COc1nccc2ccc(Nc3ccc([C@H](C)Nc4c(F)cc(CNC5CS(=O)(=O)C5)cc4F)cc3F)nc12` [PA241] gave an IC50 of 100 to 1000 nM.

In the case of `COc1nccc2ccc(Nc3ccc(CNc4cnc(C(C)(C)C(=O)NC5COC5)cn4)cc3)nc12` [PA038], the IC50 is reported as greater than 1000 nM.

Work on `COc1nccc2ccc(Nc3ccc(CNc4ncc(CC(=O)NC5COC5)cn4)cc3)cc12` [PA066] yielded an IC50 greater than 1000 nM.

Compound `O=C(Cc1cnc(NCc2ccc(Nc3ccc4cccnc4n3)cc2)nc1)NC1COC1` [PA051] has an IC50 greater than 1000 nM.

Work on `COCCNC(=O)Cc1cnc(NCc2ccc(Nc3ccc4ccnc(OC)c4n3)cc2)nc1` [PA152] yielded an IC50 of 100 to 1000 nM.

`COc1nccc2ccc(Nc3ccc(C(C)Nc4ncc(CC(=O)NC5COC5)cn4)cc3)nc12` (racemic) [PA039, 2-(2-((1-(4-((8-methoxy-1,7-naphthyridin-2-yl)amino)phenyl)ethyl)amino)pyrimidin-5-yl) acetic acid N-(oxetan-3-yl) acetamide] showed an IC50 of 100 to 1000 nM.

`COc1nccc2ccc(Nc3ccc(CNc4ncc(CCNC5COC5)cn4)cc3)nc12` [PA211] showed an IC50 of 100 to 1000 nM.

Compound `COc1nccc2ccc(Nc3ccc([C@H](C)Nc4ncc(CN5CCN(S(C)(=O)=O)CC5)cn4)cc3F)nc12` [PA189] has an IC50 of no more than 100 nM.

Work on `COc1nccc2ccc(NC34CCC(CNc5ncc([C@@H](C)C(=O)NC6COC6)cn5)(CC3)CC4)nc12` [PA077] yielded an IC50 of no more than 100 nM.

`COc1nccc2ccc(Nc3ccc([C@H](C)Nc4ncc(CNC5CS(=O)(=O)C5)cn4)cc3F)nc12` [PA172] was tested, and the IC50 was no more than 100 nM.

For `COc1nccc2ccc(Nc3ccc(CNc4ccc(CC(=O)NC5COC5)nc4)cc3)nc12` [PA082], the IC50 was greater than 1000 nM.

Work on `COc1nccc2ccc(Nc3ccc(CNc4ncc(CC(=O)N5CCC(O)C5)cn4)cc3F)nc12` (centres unmarked) [PA232] yielded an IC50 of 100 to 1000 nM.

Compound `COc1nccc2ccc(Nc3ccc(CNc4ncc(CNCc5cn[nH]c5)cn4)cc3F)nc12` [PA234] has an IC50 of 100 to 1000 nM.

`COc1nccc2ccc(Nc3ccc([C@H](C)Nc4ccc(NC(=O)NC5COC5)cn4)cc3F)nc12` [PA238] gave an IC50 of 100 to 1000 nM.

Compound `COc1nccc2ccc(Nc3ccc(CNc4ncc(CC(=O)N5CCOCC5)cn4)cc3F)nc12` [PA226] has an IC50 of 100 to 1000 nM.

`COc1nccc2ccc(NC34CCC(CNc5ncc(C(C)C(=O)NC6COC6)cn5)(CC3)CC4)nc12` (centres unmarked) [PA076] showed an IC50 of no more than 100 nM.

Compound `COc1nccc2ccc(Nc3ccc(CNc4ncc(CC(=O)NC5COC5)cn4)cc3F)nc12` [PA153] has an IC50 of no more than 100 nM.

Compound `Cc1ccc2ccc(Nc3ccc([C@H](C)Nc4ncc(CN(CCO)C5CS(=O)(=O)C5)cn4)cc3F)nc2c1Cl` [PA266] has an IC50 of no more than 100 nM.

`O=C(Cc1ccc(NCC23CCC(Nc4ccc5ccnc(Cl)c5n4)(CC2)CC3)nc1)NC1COC1` [PA228] gave an IC50 of 100 to 1000 nM.

Work on `COc1nccc2ccc(Nc3ccc([C@@H](CO)Nc4ncc(CC(=O)NC5COC5)cn4)cc3F)nc12` [PA256] yielded an IC50 greater than 1000 nM.

With `Cc1ccc2ccc(Nc3ccc([C@H](C)Nc4ncc(CN(CC(=O)O)C5CS(=O)(=O)C5)cn4)cc3F)nc2c1Cl` [PA268] the IC50 was no more than 100 nM.

Work on `C[C@H](Nc1ncc(CC2CCS(=O)(=O)CC2)cn1)C12CCC(Nc3ccc4ccnc(Cl)c4n3)(CC1)CC2` [PA187] yielded an IC50 of no more than 100 nM.
